# Data published in US20180021347A1, “COMPOSITION FOR THE TREATMENT OF HEPATIC VENO-OCCLUSIVE DISEASE” (priority 2015, published 2018).
# Key:
# [1] = cited from earlier work
# [2] = human, in vivo; cited from earlier work
# [3] = cited from earlier work; remark: listed apart in the source
# TSECs [4] = assay: Busulfan-induced death of TSECs (trypan blue cell viability); format: cell-based, human
# Method: (Cheuk D K et al, Bone Marrow transplant 40: 935-944, 2007). We tested, if the toxicity of busulfan was amenable to in vitro studies on TSECs. Accordingly, we defined the concentration-response curve for busulfan-induced death of TSECs. In analogy to Raimer J et al (EurJClinPharmacol 68: 932-935, 2012), who had used ECV304 cells, we plated TSECs on collagen-coated plastic dishes (5×10^3 cells/24-well plate). After 24 hours, busulfan was added at increasing concentrations (10 μM-1 mM). The concentration range was based on reports in the literature and on the serum levels observed in patients undergoing myeloablative chemotherapy. Cell viability was assessed after 24, 48 and 72 h.
# TSECs were plated on collagen-coated plastic dishes (5*10^3 cells/24-well plate). After 24 hours busulfan, a cell cycle non-specific alkylating antineoplastic agent, in the class of alkyl sulfonates with a chemical designation is 1,4-butanediol dimethanesulfonate, used as chemotherapeutic agent and known to induce VOD, was added at increasing concentrations (10 μM-1 mM). The concentration range is based on reports in the literature and on the serum levels observed in patients undergoing myeloablative chemotherapy. Cell viability was assessed after 24, 48 and 72 hours. For this purpose cells were washed twice with PBS, trypsinized, mixed with trypan blue (1:1 volumes) and counted using a hemocytometer. […] The data (means±standard deviation) shown represent cell death after for 48 hours.
# TSECs [5] = assay: Yield of RNA/mRNA from TSECs after busulfan and treprostinil; format: cell-based, human
# Method: In EC340 cells, concentrations as high as 300 μM were tolerated for 96h and allowed for investigating target gene expression and regulation upon treatment with busulfan. This concentration was not compatible with the extraction of mRNA in TSECs: the amount, quality and stability of mRNA were affected in a dose- and time-dependent manner (FIG. 5 and data not shown). […] Based on the time course of gene regulation in EC340 cells, we tested a treatment duration between of a minimum of 12h and a maximum of 96h (data not shown).
# Cells were either treated with 125 μM, 250 μM or 300 μM BU, the combination thereof with treprostinil (10 μM), or treprostinil (10 μM) alone, or kept in standard medium [Endothelial Cell Medium, ECM Sciencell™, USA, TSECs containing 5% fetal bovine serum, 1% endothelial cell growth supplement (ECGS) and 1% penicillin/streptomycin at 37° C. and 5% CO2]. a) Total RNA was extracted by Trizol® (lifetechnologies) according to the manufacturer's protocol. RNA concentration (ng/μl) and purity was determined with Nanodrop 2000®. If equal numbers of cells (1.6×10^5) were seeded per well, treatment with 250 and 300 μM BU induced cell death in as much rendering reproducible and valid yields of absolute RNA content impossible, already after 48h of treatment. b) The absolute yield in RNA preparations (μg/μl) was compared between cells, which had been incubated in standard medium (untreated), and cells, which had been treated with BU (125 or 250 μM BU) plus treprostinil (10 μM Trep), or treprostinil alone.
# [6] = system: plasminogen-activator inhibitor-1 (PAI-1); assay: qPCR of candidate target gene mRNA in TSECs: PAI-1; format: cell-based, human
# Method: (§1) After pretreatment of TESCs with 10 μM treprostinil for 1 h, cells were co-incubated with 10 μM treprostinil and 125 μM BU for 24 h. Total RNA was extracted by the use of PARIS Kit (life technologies). cDNA synthesis was performed by High-Capacity Reverse Transcription Kit (applied biosystems); the resulting cDNA (equivalent to 50 ng RNA/reaction) was analyzed via qPCR (StepOnePlus real-time PCR System®, Applied Biosystems). 18s rRNA was used as a reference gene.
# (§2) Based on preliminary experiments we identified plasminogen-activator inhibitor-1 (PAI-1), tissue factor (TF), tissue factor pathway inhibitor (TFPI) and thrombomodulin (TM) as suitable genes to study the potential of treprostinil to counteract busulfan-induced effects in TSECs. We also tested if busulfan-mediated effects are counteracted by 10 μM treprostinil. A total of 1.5×10^5 TESCs were plated in 6 well plates. As soon as 90% confluence was reached, cells were pretreated with treprostinil for 1 h, then cells were incubated for 24h in standard culture medium containing both BU and treprostinil. Thereafter, cells were washed and mRNA was prepared. Treprostinil counteracted the busulfan-induced increased expression of procoagulatory factors such as PAI-1 and TF (data not shown). […]
# tissue factor (TF) = assay: qPCR of candidate target gene mRNA in TSECs: TF; format: cell-based, human
# Method: as §1, §2
# thrombomodulin (TM) = assay: qPCR of candidate target gene mRNA in TSECs: TM; format: cell-based, human; details: data not shown
# Method: as §1, §2
# [7] = system: tissue factor pathway inhibitor (TFPI); assay: qPCR of candidate target gene mRNA in TSECs: TFPI; format: cell-based, human
# Method: as §1
# Based on preliminary experiments we identified plasminogen-activator inhibitor-1 (PAI-1), tissue factor (TF), tissue factor pathway inhibitor (TFPI) and thrombomodulin (TM) as suitable genes to study the potential of treprostinil to counteract busulfan-induced effects in TSECs. We also tested if busulfan-mediated effects are counteracted by 10 μM treprostinil. A total of 1.5×10^5 TESCs were plated in 6 well plates. As soon as 90% confluence was reached, cells were pretreated with treprostinil for 1 h, then cells were incubated for 24h in standard culture medium containing both BU and treprostinil. Thereafter, cells were washed and mRNA was prepared. Treprostinil counteracted the busulfan-induced increased expression of procoagulatory factors such as PAI-1 and TF (data not shown). […] These observations justify the use of TSECs as an in vitro model system to study surrogate parameters, which are predictive of an increased risk of VOD in vivo.
# Treatment of TESCs was performed as indicated in the legend to FIG. 6. Treprostinil-treatment was initiated 1 h prior to addition of busulfan. Cells were collected 24 h later.
# EC340 cells = details: 96h; cited from earlier work
# EP3-receptors = molecular target: T1, EP3-receptors (Homo sapiens, UniProt P43115); details: inhibitory Gi-coupled EP3-receptors; cited from earlier work
# T1 sequence (P43115 1-390): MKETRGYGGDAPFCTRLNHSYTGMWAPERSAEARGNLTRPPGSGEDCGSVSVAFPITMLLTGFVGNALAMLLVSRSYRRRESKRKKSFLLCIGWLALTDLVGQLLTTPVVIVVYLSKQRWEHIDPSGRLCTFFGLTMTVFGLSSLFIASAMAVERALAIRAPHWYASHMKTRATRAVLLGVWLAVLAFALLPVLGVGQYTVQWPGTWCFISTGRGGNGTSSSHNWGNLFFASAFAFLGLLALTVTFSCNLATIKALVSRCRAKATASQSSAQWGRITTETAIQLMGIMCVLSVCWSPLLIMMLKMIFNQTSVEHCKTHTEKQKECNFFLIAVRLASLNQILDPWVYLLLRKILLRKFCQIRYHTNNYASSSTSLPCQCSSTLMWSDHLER
# TSECs [8] = assay: Attenuation by treprostinil of busulfan-induced cell death in TSECs; format: cell-based, human
# Method: TSECs were pretreated with treprostinil (10 μM) for 1 h and examined, if this protected them against busulfan-induced cell death by challenging them—in the continuous presence of treprostinil—with 125 and 250 μM and 500 μM Busulfan (BU). After 24 h, cell viability was determined by counting detached cells in a haemocytometer and determining the number of trypan blue-positive (=dead) and trypan-blue excluding (=live) cells.
# TSECs were plated on collagen-coated plastic dishes (5*10^3 cells/24-well plate). After 24 hours treprostinil was added at a concentration of […]. One hour later, busulfan was added at increasing concentrations. Cell viability was assessed after 48 hours.
# We examined the concentration range, in which treprostinil protected TSECs against busulfan-induced cell death. TSECs were plated on collagen-coated plastic dishes and after 24 h treprostinil was added at concentrations of 5, 10 and 20 pM. One hour later, busulfan was added at concentrations of 125 and 250 μM. Cell viability was assessed after 48 h. […] The data were analyzed using a 2-way ANOVA.
# TSECs were plated on collagen-coated plastic dishes (5*10^3 cells/24-well plate). After 24 hours treprostinil was added at concentrations of 5, 10 and 20 pM. One hour later, busulfan was added at concentration of 125 and 250 μM. Cell viability was assessed after 48 hours. Even low concentrations of treprostinil (5 μM) attenuated busulfan induced cell death. […] The data were analyzed by two-way ANOVA. A Bonferroni post hoc test was conducted to test for differences between individual treatment groups.
# [9] = system: intracellular cAMP levels in TSECs; assay: cAMP accumulation in TSECs; format: cell-based, human; details: 1 h
# Method: It is desirable to understand the mechanisms, which allow treprostinil to modulate busulfan-induced gene expression, because this allows for searching for additional target genes. It was assumed that the action of treprostinil is mediated by an increased accumulation of cAMP. […] This was seen both, in the presence of 30 μM forskolin ([…], left hand panel) and if the concentration of forskolin was titrated between 1 and 30 μM (FIG. 6, middle and right hand panel). It was also seen regardless of whether [^3H]cAMP was low (FIG. 6, middle panel) or high (FIG. 6, right hand panel).
# Control cells were incubated in standard medium. For comparison, cAMP accumulation was also assessed after incubation with dmPGE2. […] In the third experiment, the response was higher, presumably due to more extensive labelling of the adenine nucleotide pool. However, in none of the experiments tested, treprostinil alone sufficed to increase intracellular cAMP levels over that seen in untreated control cells.
# EP2-receptors = EP2-receptors (Homo sapiens, UniProt P43116); details: cited from earlier work
# Chain of EP2-receptors (P43116 whole entry): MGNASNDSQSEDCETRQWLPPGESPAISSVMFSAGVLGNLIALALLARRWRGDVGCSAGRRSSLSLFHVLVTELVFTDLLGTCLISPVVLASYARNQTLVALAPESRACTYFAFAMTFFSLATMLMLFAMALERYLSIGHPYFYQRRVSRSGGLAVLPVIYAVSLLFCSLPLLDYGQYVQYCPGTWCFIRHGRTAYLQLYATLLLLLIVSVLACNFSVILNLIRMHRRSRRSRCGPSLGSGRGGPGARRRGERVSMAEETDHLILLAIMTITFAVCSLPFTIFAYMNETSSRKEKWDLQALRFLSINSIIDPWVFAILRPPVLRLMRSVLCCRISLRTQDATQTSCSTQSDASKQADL
# EP4-receptors = EP4-receptors (Homo sapiens, UniProt P35408); details: cited from earlier work
# Chain of EP4-receptors (P35408 whole entry): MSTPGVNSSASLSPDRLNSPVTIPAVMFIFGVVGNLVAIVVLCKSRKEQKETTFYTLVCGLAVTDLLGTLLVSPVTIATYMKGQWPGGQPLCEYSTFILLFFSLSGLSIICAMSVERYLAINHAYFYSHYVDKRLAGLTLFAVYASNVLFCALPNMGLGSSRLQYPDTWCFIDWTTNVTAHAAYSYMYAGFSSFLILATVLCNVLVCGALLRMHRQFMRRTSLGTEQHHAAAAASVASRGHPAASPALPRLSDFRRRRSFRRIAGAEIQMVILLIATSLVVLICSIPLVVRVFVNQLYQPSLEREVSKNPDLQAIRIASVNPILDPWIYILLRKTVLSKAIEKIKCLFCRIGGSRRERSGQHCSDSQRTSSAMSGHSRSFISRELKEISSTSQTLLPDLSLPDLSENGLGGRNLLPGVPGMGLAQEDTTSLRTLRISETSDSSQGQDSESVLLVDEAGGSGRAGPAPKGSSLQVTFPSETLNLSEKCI
# [10] = 10 μM treprostinil 1 h pretreatment, then with 125 μM BU for 24 h, data not shown
compound,measurement,setting,value
CCCCC[C@H](O)/C=C/[C@@H]1[C@H]2C/C(=C/CCCC(=O)O)O[C@H]2C[C@H]1O [Flolan],serum half-life,[1],very short
same,maximum tolerable dosage,[2],5 to 8 ng/kg/day
"CCCCC[C@H](O)/C=C/[C@H]1[C@H](O)CC(=O)[C@@H]1CCCCCCC(=O)O [PGE1, prostaglandin E1]",advantage in VOD,"[3]; PGE1 alone (Senzolo M. et al., 2007)",failed to show any advantage
"CS(=O)(=O)OCCCCOS(C)(=O)=O [busulfan, 1,4-butanediol dimethanesulfonate]","cell death of TSECs, concentration dependence","TSECs [4]; busulfan 10 μM-1 mM, 48 hours, absence of hepatocytes (FIG. 2)",induced cell death in a concentration dependent manner
same,cell death of TSECs,"TSECs [4]; busulfan 10 μM-1 mM, after 24 h",No obvious cell death
same,cell death of TSECs,"TSECs [4]; busulfan, also at lower concentrations, after 72 h",almost complete cell death
same,highest busulfan concentration allowing harvest of mRNA of adequate quality for qPCR,TSECs [5]; 48 h pretreatment of TSECs,125 µM
same,yield of RNA compared to untreated cells (100%),TSECs [5]; busulfan 125 μM for 48h,85%
same,yield of RNA compared to untreated cells (100%),TSECs [5]; busulfan 250 μM for 48h,74%
same,PAI-1 expression,"[6]; busulfan 125 μM, 24 h",induces the expression
same,TF expression,"tissue factor (TF); busulfan 125 μM, 24 h",induces the expression
same,thrombomodulin (TM) expression,"thrombomodulin (TM); busulfan 125 μM, 24 h",decreased the expression
same,expression of TFPI,[7]; busulfan,induced
same,tolerated concentration,EC340 cells,≤ 300 µM
CCCCC(C)(C)[C@H](O)/C=C/[C@H]1[C@H](O)CC(=O)[C@@H]1C/C=C\CCCC(=O)O [dimethyl-PGE2],agonism at EP3-receptors,EP3-receptors,full agonist
CCCCC[C@H](O)/C=C/[C@H]1[C@H](O)CC(=O)[C@@H]1C/C=C\CCCC(=O)O [prostaglandin E2],incidence of VOD,"[3]; in combination with heparin (Senzolo M. et al., 2007)",lower incidence of VOD
"CCCCC[C@H](O)CC[C@@H]1[C@H]2Cc3cccc(OCC(=O)[O-])c3C[C@H]2C[C@H]1O.[Na+] [treprostinil, (1R,2R,3aS,9aS)-[[2,3,3a,4,9,9a-hexahydro-2-hydroxy-1-[(3S)-3-hydroxyoctyl]-1H-benz[f]inden-5-yl]oxy]acetic acid monosodium salt]",concentration close to saturation of protection against busulfan-induced cell death,"TSECs [8]; busulfan 125 and 250 μM, 48 h",10 µM
same,cell viability,"TSECs [8]; treprostinil 10 pM added 1 hour before busulfan 125 and 250 μM, 48 hours",increased viability
same,effect on busulfan-induced cell death,"TSECs [8]; treprostinil 5 μM, busulfan 125 and 250 μM, 48 h",attenuated busulfan-induced cell death
same,effect on BU-induced toxicity (cell viability),"TSECs [8]; treprostinil 10 μM, 1 h pretreatment, busulfan 125, 250 and 500 μM, after 24 h, three independent experiments",attenuated BU-induced toxicity
same,beneficial effect on busulfan induced cell death at higher concentrations,"TSECs [8]; treprostinil above 5 μM (10 and 20), busulfan 125 and 250 μM, 48 hours",did not increase at higher concentrations
same,loss in RNA yield,"TSECs [5]; busulfan plus 10 μM treprostinil, pretreated 1 hour and co-incubated 24 h",11%
same,RNA content compared to control cells,"TSECs [5]; treprostinil alone (10 μM), 5 independent RNA preparations",111%
same,effect on busulfan-induced increased expression of PAI-1,[6]; [10],counteracted
same,effect on busulfan-induced increased expression of TF,tissue factor (TF); [10],counteracted
same,effect on busulfan-induced decrease of TM expression,"thrombomodulin (TM); 10 μM treprostinil 1 h pretreatment, then with 125 μM BU for 24 h",mitigated the effect of busulfan
same,expression of TFPI,[7]; treprostinil,induced
same,"regulation of expression of mRNA of TFPI, concentration dependence",[7]; treprostinil in TESCs,concentration-dependent manner
same,intracellular cAMP levels,[9]; sole addition of treprostinil,did not suffice to increase intracellular cAMP levels
same,intracellular cAMP levels,"[9]; treprostinil 10 μM, cells sensitized with forskolin (1 to 30 μM)",further increased intracellular cAMP levels
same,agonism at EP3-receptors,EP3-receptors,low affinity agonist
same,stimulation of EP2-receptors,EP2-receptors,selectively stimulates
same,stimulation of EP4-receptors,EP4-receptors,selectively stimulates
